Measured values reported in patent US6706663B2, “Herbicidal 3-heterocyclic substituted benzisothiazole and benzisoxazole compounds” (Wyeth, priority 2000, dated 2004).

Columns and labels:
[1] = system: ABUTH (Abutilon theophrasti); test: Preemergence herbicidal evaluation; format: in vivo, Medic.; settings: rated 4-5 weeks after treatment
[2] = system: AMBEL (Ambrosia artemisifolia); test: Preemergence herbicidal evaluation; format: in vivo, L.; settings: rated 4-5 weeks after treatment
Procedure, shortened: (§1)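 Preemergence soil spray, aq. acetone; greenhouse; visual 0–9 score vs control at 4–5 wk.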

[3] = system: CASOB (Cassia obtusifolia); test: Preemergence herbicidal evaluation; format: in vivo, L.; settings: rated 4-5 weeks after treatment
Procedure, shortened: as §1

[4] = system: CHEAL (Chenopodium album); test: Preemergence herbicidal evaluation; format: in vivo, L.; settings: rated 4-5 weeks after treatment
Procedure, shortened: as §1

ORYSAT (Rice, Tebonnet) [5] = test: Postemergence herbicidal evaluation; format: in vivo, Oryza sativa, (L.) Tebonnet; settings: postemergence
Procedure, shortened: (§2)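 Visual 0–9 injury scores versus control plants, covering stand, vigour, malformation, size, chlorosis and general appearance, taken four to five weeks post-spray and averaged over replicate tests. Plants were sprayed at roughly two weeks old and held on greenhouse benches.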

GALAP (Galium aparine) [6] = test: Preemergence herbicidal evaluation; format: in vivo; settings: rated 4-5 weeks after treatment
Procedure, shortened: as §1

[7] = system: AMBEL (Ambrosia artemisifolia); test: Postemergence herbicidal evaluation; format: in vivo, L.; settings: postemergence
Procedure, shortened: as §2

[8] = system: CASOB (Cassia obtusifolia); test: Postemergence herbicidal evaluation; format: in vivo, L.; settings: postemergence
Procedure, shortened: as §2

[9] = system: CHEAL (Chenopodium album); test: Postemergence herbicidal evaluation; format: in vivo, L.; settings: postemergence
Procedure, shortened: as §2

[10] = system: SAGPY (Sagittaria pygmaea); test: Flooded paddy, preemergence weed control; format: in vivo, L.; settings: rated 3-4 weeks after treatment, 0-9 rating scale
Procedure, shortened: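 Greenhouse paddy test, preemergence. Seeds planted in the top 0.5 cm of silt loam soil, which remained flooded at 1.5–3 cm depth. Scored 0-9 by visual comparison with control.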

[11] = system: IPOHE (Ipomoea hederacea); test: Preemergence herbicidal evaluation; format: in vivo, (L.) Jacq.; settings: rated 4-5 weeks after treatment
GALAP (Galium aparine) [12] = test: Postemergence herbicidal evaluation; format: in vivo; settings: postemergence
Procedure, shortened: as §2

[13] = system: GLXMAW (Soybean, Williams); test: Postemergence herbicidal evaluation; format: in vivo, Glycine max, (L.) Merr. cv Williams; settings: postemergence
Procedure, shortened: as §2

[14] = system: ABUTH (Abutilon theophrasti); test: Postemergence herbicidal evaluation; format: in vivo, Medic.; settings: postemergence
Procedure, shortened: as §2

ZEAMX (Corn, Field) = test: Postemergence herbicidal evaluation; format: in vivo, Zea mays, L.; settings: postemergence
Procedure, shortened: as §2

[15] = system: TRZAWR (Wheat, Winter, cv Riband); test: Preemergence herbicidal evaluation; format: in vivo, Triticum aestivum; settings: rated 4-5 weeks after treatment
Procedure, shortened: as §1

ORYSAT (Rice, Tebonnet) [16] = test: Flooded paddy, post-transplant rice tolerance; format: in vivo, Oryza sativa, (L.) Tebonnet; settings: flooded paddy, post-transplant rice, rated 3-4 weeks after treatment, 0-9 rating scale
Procedure, shortened: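 Ten-day-old seedlings, 2/pot, silt loam; flood kept 1.5–3 cm over soil; herbicide applied post-transplant; greenhouse; score 0–9 visual vs control.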

[17] = system: ECHCG (Echinochloa crus-galli); test: Postemergence herbicidal evaluation; format: in vivo, (L.) Beau; settings: postemergence
Procedure, shortened: as §2

ORYSAT (Rice, Tebonnet) [18] = test: Preemergence herbicidal evaluation; format: in vivo, Oryza sativa, (L.) Tebonnet; settings: rated 4-5 weeks after treatment

Compound: CC(C)C1COC(c2nsc3ccc(-n4c(=O)cc(C(F)(F)F)n(C)c4=O)cc23)=N1 (stereo not drawn) [Compound 74, 3-[3-(4-isopropyl-2-oxazolin-2-yl)-1,2-benzisothiazol-5-yl]-1-methyl-6-(trifluoromethyl)uracil]
- Preemergence herbicidal rating ABUTH ([1]; Rate 0.0620 kg/ha): 3.0
- Preemergence herbicidal rating ABUTH ([1]; Rate 0.1250 kg/ha): 7.0
- Preemergence herbicidal rating ABUTH ([1]; Rate 0.2500 kg/ha): 9.0
- Preemergence herbicidal rating AMBEL ([2]; Rate 0.0620 kg/ha): 0.0
- Preemergence herbicidal rating AMBEL ([2]; Rate 0.1250 kg/ha): 6.0
- Preemergence herbicidal rating AMBEL ([2]; Rate 0.2500 kg/ha): 9.0
- Preemergence herbicidal rating CASOB ([3]; Rate 0.0620 kg/ha): 0.0
- Preemergence herbicidal rating CASOB ([3]; Rate 0.1250 kg/ha): 0.0
- Preemergence herbicidal rating CASOB ([3]; Rate 0.2500 kg/ha): 3.0
- Preemergence herbicidal rating CHEAL ([4]; Rate 0.0620 kg/ha): 9.0
- Preemergence herbicidal rating CHEAL ([4]; Rate 0.1250 kg/ha): 9.0
- Preemergence herbicidal rating CHEAL ([4]; Rate 0.2500 kg/ha): 9.0
- ORYSAT herbicidal rating (ORYSAT (Rice, Tebonnet) [5]; rate 0.0320 kg/ha): 3.5
- ORYSAT herbicidal rating (ORYSAT (Rice, Tebonnet) [5]; rate 0.0620 kg/ha): 4.0
- Preemergence herbicidal rating GALAP (GALAP (Galium aparine) [6]; Rate 0.0620 kg/ha): 6.0
- Preemergence herbicidal rating GALAP (GALAP (Galium aparine) [6]; Rate 0.1250 kg/ha): 7.0
- Preemergence herbicidal rating GALAP (GALAP (Galium aparine) [6]; Rate 0.2500 kg/ha): 9.0
- AMBEL herbicidal rating ([7]; rate 0.0320 kg/ha): 9.0
- AMBEL herbicidal rating ([7]; rate 0.0620 kg/ha): 9.0
- CASOB herbicidal rating ([8]; rate 0.0320 kg/ha): 2.0
- CASOB herbicidal rating ([8]; rate 0.0620 kg/ha): 1.0
- CHEAL herbicidal rating ([9]; rate 0.0320 kg/ha): 9.0
- CHEAL herbicidal rating ([9]; rate 0.0620 kg/ha): 9.0
- herbicidal rating, SAGPY ([10]; rate 0.0080 kg/ha): 0.0
- herbicidal rating, SAGPY ([10]; rate 0.0320 kg/ha): 1.5
- herbicidal rating, SAGPY ([10]; rate 0.1250 kg/ha): 7.0
- Preemergence herbicidal rating IPOHE ([11]; Rate 0.0620 kg/ha): 0.0
- Preemergence herbicidal rating IPOHE ([11]; Rate 0.1250 kg/ha): 0.0
- Preemergence herbicidal rating IPOHE ([11]; Rate 0.2500 kg/ha): 8.0
- GALAP herbicidal rating (GALAP (Galium aparine) [12]; rate 0.0320 kg/ha): 6.0
- GALAP herbicidal rating (GALAP (Galium aparine) [12]; rate 0.0620 kg/ha): 8.0
- GLXMAW herbicidal rating ([13]; rate 0.0320 kg/ha): 5.5
- GLXMAW herbicidal rating ([13]; rate 0.0620 kg/ha): 7.0
- ABUTH herbicidal rating ([14]; rate 0.0320 kg/ha): 9.0
- ABUTH herbicidal rating ([14]; rate 0.0620 kg/ha): 9.0
- ZEAMX herbicidal rating (ZEAMX (Corn, Field); rate 0.0320 kg/ha): 5.0
- ZEAMX herbicidal rating (ZEAMX (Corn, Field); rate 0.0620 kg/ha): 5.0
- Preemergence herbicidal rating TRZAWR ([15]; Rate 0.0620 kg/ha): 1.0
- Preemergence herbicidal rating TRZAWR ([15]; Rate 0.1250 kg/ha): 2.0
- Preemergence herbicidal rating TRZAWR ([15]; Rate 0.2500 kg/ha): 5.0
- herbicidal rating, ORYSAT (rice tolerance) (ORYSAT (Rice, Tebonnet) [16]; rate 0.0080 kg/ha): 1.5
- herbicidal rating, ORYSAT (rice tolerance) (ORYSAT (Rice, Tebonnet) [16]; rate 0.0320 kg/ha): 4.0
- herbicidal rating, ORYSAT (rice tolerance) (ORYSAT (Rice, Tebonnet) [16]; rate 0.1250 kg/ha): 6.0
- ECHCG herbicidal rating ([17]; rate 0.0320 kg/ha): 2.0
- ECHCG herbicidal rating ([17]; rate 0.0620 kg/ha): 2.0
- Preemergence herbicidal rating ORYSAT (ORYSAT (Rice, Tebonnet) [18]; Rate 0.0620 kg/ha): 1.0
- Preemergence herbicidal rating ORYSAT (ORYSAT (Rice, Tebonnet) [18]; Rate 0.1250 kg/ha): 1.0
- Preemergence herbicidal rating ORYSAT (ORYSAT (Rice, Tebonnet) [18]; Rate 0.2500 kg/ha): 5.0

Compound: Cn1c(C(F)(F)F)cc(=O)n(-c2ccc3snc(C4=NCCO4)c3c2)c1=O [Compound 75, 1-methyl-3-[3(2-oxazolin-2-yl)-1,2-benzisothiazol-5-yl]-6-(trifluoromethyl)uracil]
- Preemergence herbicidal rating ABUTH ([1]; Rate 0.0620 kg/ha): 1.0
- Preemergence herbicidal rating ABUTH ([1]; Rate 0.1250 kg/ha): 1.0
- Preemergence herbicidal rating ABUTH ([1]; Rate 0.2500 kg/ha): 9.0
- Preemergence herbicidal rating AMBEL ([2]; Rate 0.0620 kg/ha): 1.0
- Preemergence herbicidal rating AMBEL ([2]; Rate 0.1250 kg/ha): 3.0
- Preemergence herbicidal rating AMBEL ([2]; Rate 0.2500 kg/ha): 7.0
- Preemergence herbicidal rating CASOB ([3]; Rate 0.0620 kg/ha): 0.0
- Preemergence herbicidal rating CASOB ([3]; Rate 0.1250 kg/ha): 1.0
- Preemergence herbicidal rating CASOB ([3]; Rate 0.2500 kg/ha): 1.0
- Preemergence herbicidal rating CHEAL ([4]; Rate 0.0620 kg/ha): 9.0
- Preemergence herbicidal rating CHEAL ([4]; Rate 0.1250 kg/ha): 6.0
- Preemergence herbicidal rating CHEAL ([4]; Rate 0.2500 kg/ha): 9.0
- ORYSAT herbicidal rating (ORYSAT (Rice, Tebonnet) [5]; rate 0.0320 kg/ha): 2.5
- ORYSAT herbicidal rating (ORYSAT (Rice, Tebonnet) [5]; rate 0.0620 kg/ha): 3.5
- Preemergence herbicidal rating GALAP (GALAP (Galium aparine) [6]; Rate 0.0620 kg/ha): 5.0
- Preemergence herbicidal rating GALAP (GALAP (Galium aparine) [6]; Rate 0.1250 kg/ha): 7.0
- Preemergence herbicidal rating GALAP (GALAP (Galium aparine) [6]; Rate 0.2500 kg/ha): 9.0
- AMBEL herbicidal rating ([7]; rate 0.0320 kg/ha): 9.0
- AMBEL herbicidal rating ([7]; rate 0.0620 kg/ha): 9.0
- CASOB herbicidal rating ([8]; rate 0.0320 kg/ha): 2.0
- CASOB herbicidal rating ([8]; rate 0.0620 kg/ha): 2.0
- CHEAL herbicidal rating ([9]; rate 0.0320 kg/ha): 7.0
- CHEAL herbicidal rating ([9]; rate 0.0620 kg/ha): 7.0
- herbicidal rating, SAGPY ([10]; rate 0.0080 kg/ha): 0.0
- herbicidal rating, SAGPY ([10]; rate 0.0320 kg/ha): 4.5
- herbicidal rating, SAGPY ([10]; rate 0.1250 kg/ha): 9.0
- Preemergence herbicidal rating IPOHE ([11]; Rate 0.0620 kg/ha): 0.0
- Preemergence herbicidal rating IPOHE ([11]; Rate 0.1250 kg/ha): 4.0
- Preemergence herbicidal rating IPOHE ([11]; Rate 0.2500 kg/ha): 7.0
- GALAP herbicidal rating (GALAP (Galium aparine) [12]; rate 0.0320 kg/ha): 5.0
- GALAP herbicidal rating (GALAP (Galium aparine) [12]; rate 0.0620 kg/ha): 7.0
- GLXMAW herbicidal rating ([13]; rate 0.0320 kg/ha): 5.5
- GLXMAW herbicidal rating ([13]; rate 0.0620 kg/ha): 7.0
- ABUTH herbicidal rating ([14]; rate 0.0320 kg/ha): 9.0
- ABUTH herbicidal rating ([14]; rate 0.0620 kg/ha): 9.0
- ZEAMX herbicidal rating (ZEAMX (Corn, Field); rate 0.0320 kg/ha): 4.5
- ZEAMX herbicidal rating (ZEAMX (Corn, Field); rate 0.0620 kg/ha): 5.0
- Preemergence herbicidal rating TRZAWR ([15]; Rate 0.0620 kg/ha): 0.0
- Preemergence herbicidal rating TRZAWR ([15]; Rate 0.1250 kg/ha): 2.0
- Preemergence herbicidal rating TRZAWR ([15]; Rate 0.2500 kg/ha): 7.0
- herbicidal rating, ORYSAT (rice tolerance) (ORYSAT (Rice, Tebonnet) [16]; rate 0.0080 kg/ha): 2.5
- herbicidal rating, ORYSAT (rice tolerance) (ORYSAT (Rice, Tebonnet) [16]; rate 0.0320 kg/ha): 4.5
- herbicidal rating, ORYSAT (rice tolerance) (ORYSAT (Rice, Tebonnet) [16]; rate 0.1250 kg/ha): 6.0
- ECHCG herbicidal rating ([17]; rate 0.0320 kg/ha): 3.0
- ECHCG herbicidal rating ([17]; rate 0.0620 kg/ha): 3.0
- Preemergence herbicidal rating ORYSAT (ORYSAT (Rice, Tebonnet) [18]; Rate 0.0620 kg/ha): 0.0
- Preemergence herbicidal rating ORYSAT (ORYSAT (Rice, Tebonnet) [18]; Rate 0.1250 kg/ha): 2.0
- Preemergence herbicidal rating ORYSAT (ORYSAT (Rice, Tebonnet) [18]; Rate 0.2500 kg/ha): 7.0
